This passage reports IC50 results from US11667668B2, “Compositions and methods for treating CNS disorders” (Sage Therapeutics, Inc., priority 2017, dated 2023).

Broadly, the IC50 is the concentration that inhibits the measured activity by half.

The target in the test is rat brain cortical membranes ([35S]-TBPS binding; GABAA receptor). Description: Steroid inhibition of [35S]-TBPS binding. The conditions noted are these: 3 nM [35S]-TBPS, in the presence of 5 mM GABA, 90 min at room temp. As to the method: [35S]-t-Butylbicyclophosphorothionate (TBPS) binding assays using rat brain cortical membranes in the presence of 5 mM GABA has been described (Gee et al, J. Pharmacol. Exp. Ther. 1987, 241, 346-353; Hawkinson et al, Mol. Pharmacol. 1994, 46, 977-985; Lewin, A. H et al., Mol. Pharmacol. 1989, 35, 189-194).
Briefly, cortices are rapidly removed following decapitation of carbon dioxide-anesthetized Sprague-Dawley rats (200-250 g). The cortices are homogenized in 10 volumes of ice-cold 0.32 M sucrose using a glass/teflon homogenizer and centrifuged at 1500×g for 10 min at 4° C. The resultant supernatants are centrifuged at 10,000×g for 20 min at 4° C. to obtain the P2 pellets. The P2 pellets are resuspended in 200 mM NaCl/50 mM Na—K phosphate pH 7.4 buffer and centrifuged at 10,000×g for 10 min at 4° C. This washing procedure is repeated twice and the pellets are resuspended in 10 volumes of buffer. Aliquots ([…]) of the membrane suspensions are incubated with 3 nM [35S]-TBPS and 5 mL aliquots of test drug dissolved in dimethyl sulfoxide (DMSO) (final 0.5%) in the presence of 5 mM GABA. The incubation is brought to a final volume of 1.0 mL with buffer. Nonspecific binding is determined in the presence of […] and ranged from 15 to 25%. […] Filter bound radioactivity is measured by liquid scintillation spectrometry. […]

As for `[2H]C([2H])([2H])[C@@]1(O)CC[C@H]2[C@H](CC[C@@H]3[C@@H]2CC[C@]2(C)[C@@H](C(=O)Cn4cc(C#N)cn4)CC[C@@H]32)C1` [Compound 1, 1-(2-((3R,5R,8R,9R,10S,13S,14S,17S)-3-hydroxy-13-methyl-3-(methyl-d3)hexadecahydro-1H-cyclopenta[a]phenanthren-17-yl)-2-oxoethyl)-1H-pyrazole-4-carbonitrile], the half-inhibitory concentration (IC50) was less than 0.01 µM.

For the compound `[2H][C@]1(C(=O)Cn2cc(C#N)cn2)CC[C@H]2[C@@H]3CC[C@@H]4C[C@](C)(O)CC[C@@H]4[C@H]3CC[C@@]21C` [Compound A10, 1-(2-((3R,5R,8R,9R,10S,13S,14S,17S)-3-hydroxy-3,13-dimethylhexadecahydro-1H-cyclopenta[a]phenanthren-17-yl-17-d)-2-oxoethyl)-1H-pyrazole-4-carbonitrile], the IC50 is less than 0.01 µM.
